# Measurements as given in patent US4618612A (Medosan Industrie Biochimiche Riunite S.p.A., priority 1983, dated 1986).
# Experiments:
# [1] = tested on: rat platelet-rich plasma (ADP-induced platelet aggregation); experiment: Anti-platelet aggregation activity in vitro (Born's method), rat platelet-rich plasma, ADP-induced; type: cell-based
# Experimental: Preparations (A), (B), (C), (D), (E) and (F) were administered "in vivo" orally and/or parenterally in 0.5% carboxymethylcellulose suspensions in physiological saline at neutral pH. When tested "in vitro", they were finely dispersed in neutral pH physiological saline.
# This was studied "in vitro" following Born's method (Born G. W. R., Nature, 194, 937 (1962)) and inducing platelet aggregation with ADP.
# Platelet-rich plasma was obtained by centrifugation for 10 minutes at 2,000 rpm of 9 parts rat blood to 1 part 3.13% sodium citrate solution. In performing the aggregation test, 0.2 ml of platelet rich plasm was mixed with a 0.9% NaCl solution to which the test substance was added to a final volume of 0.6 ml; the resulting mixture was incubated at 27° C. for 3 minutes. After inducement with ADP, aggregation was measured continuously with an Elvi 840 Aggregometer (Elvi Logos-Milan) to follow its course. The anti-aggregant effects were determined from the difference in the light transmission of the sample with respect to an ADP control.
# Table I reports the platelet aggregation inhibition using different doses of the test compounds at a constant ADP concentration.
# gastric mucosa = experiment: Gastric tolerance (ulcerogenic activity); type: in vivo, male Wistar rats; details: 4 days; for Mean Severity: scale 0-5
# Experimental: This was studied by conducting tests of ulcerogenic activity in male Wistar rats, weighing 180 g on the average, in groups of 10 animals each. Three doses of each substance were given, and one group of animals was treated with vehicle only in a volume of 10 ml/kg bodyweight. Each dose was given orally for four consecutive days; on the fifth day, the rats were killed and autopsied. The ulcerogenic effect was assessed according to the following scale:
# (1) each hemorrhage point ≥1 mm was evaluated as 1 lesion
# (2) hemorrhage points smaller than 1 mm were counted as follows:
# (b) from 1 to 19:2 lesions
# (c) from 1 to 29:3 lesions
# (2) gastric mucosa irritation: 1
# (3) hemorrahge points <1 mm: 2
# (4) hemorrhage points between 1 and 3 mm: 3
# (5) hemorrhage points >3 mm: 4
# This scale was used to calculate the following gastric damage index: [formula]
# carragenin-induced edema = experiment: Carragenin-induced edema test (Winter); type: in vivo, rat
# Experimental: This effect was measured with an experimental model reproducing acute inflammation in rats: the carragenin-induced edema test according to C.
# [2] = tested on: human platelet aggregation (PRP); experiment: Human platelet aggregation in vitro induced by ADP, adrenalin, collagen or arachidonate; type: cell-based
# Experimental: Blood samples (20 ml) were obtained by venal puncture of the antecubital fossa using plastic syringes containing trisodium citrate as anticoagulant (final concentration 0.19% w/v). Platelet rich plasma (PRP) was harvested after slow centrifugation at 170 g for 12 min. and 0.2 ml aliquots were dispensed into plastic cuvettes and stored at room temperature throughout the experiment.
# Aliquots of 0.2 ml PRP from each sample were treated with ADP, adrenalin, collagen or arachidonate, until the threshold concentrations of these aggregating agents had been reached. The threshold concentration is defined as the minimum whcih will produce irreversible aggregation. Once established, the threshold concentration was used to challenge test samples of each of the 2 test compounds or vehicle (DMSO) which had been incubated for 1 min. at 37 C. in the holding cell of the agregometer, prior to addition of the aggregating agent.
# This was reported as the final concentration in the PRP after addition of 2.5-10 ul of test substance.
# in vivo [3] = details: rat, rats
# in vivo [4] = details: mouse, mice
# [5] = ADP 2 μmol/l, dose 1 V/ml (Table II)
# [6] = ADP 5 μmol/l, dose 1 V/ml (Table II)
# [7] = ADP 7.08 μmol/l, dose 1 /ml (Table I)
# [8] = ADP 7.08 μmol/l, dose 5 /ml (Table I)
Compound,"% Inhibition [1, 5]","% Inhibition [1, 6]","% Edema Inhibition (carragenin-induced edema; I.P., 10 mg/kg, 3 h)","% Edema Inhibition (carragenin-induced edema; I.P., 10 mg/kg, 6 h)","% Edema Inhibition (carragenin-induced edema; I.P., 10 mg/kg, 24 h)","% Edema Inhibition (carragenin-induced edema; I.P., 50 mg/kg, 3 h)","% Edema Inhibition (carragenin-induced edema; I.P., 50 mg/kg, 6 h)","% Edema Inhibition (carragenin-induced edema; I.P., 50 mg/kg, 24 h)","% Edema Inhibition (carragenin-induced edema; I.P., 100 mg/kg, 3 h)","% Edema Inhibition (carragenin-induced edema; I.P., 100 mg/kg, 6 h)","% Edema Inhibition (carragenin-induced edema; I.P., 100 mg/kg, 24 h)","% Edema Inhibition (carragenin-induced edema; OS, 10 mg/kg, 3 h)","% Edema Inhibition (carragenin-induced edema; OS, 10 mg/kg, 6 h)","% Edema Inhibition (carragenin-induced edema; OS, 10 mg/kg, 24 h)","% Edema Inhibition (carragenin-induced edema; OS, 50 mg/kg, 3 h)","% Edema Inhibition (carragenin-induced edema; OS, 50 mg/kg, 6 h)","% Edema Inhibition (carragenin-induced edema; OS, 50 mg/kg, 24 h)","% Edema Inhibition (carragenin-induced edema; OS, 100 mg/kg, 3 h)","% Edema Inhibition (carragenin-induced edema; OS, 100 mg/kg, 6 h)","% Edema Inhibition (carragenin-induced edema; OS, 100 mg/kg, 24 h)",other results
"CC(=O)Oc1ccccc1C(=O)O [aspirin, reference compound]",29%,19%,,,,,,,,,,,,,,,,,,,"% Inhibition [1, 7]: 15%; % Inhibition [1, 8]: 60%; % Inhibition ([1]; ADP 7.08 μmol/l, dose 10 /ml (Table I)): 100%"
"Cc1ccc(C(=O)c2ccc(CC(=O)O)n2C)cc1 [Na Tolmetin 2H2 O, 1-methyl-5-p-methylbenzoylpyrrol-2-acetic acid, reference compound]",,,"32,0%","23,0%","0,0%","48,6%","53,2%","0,0%","67,3%","55,1%","0,0%","30,5%","24,0%","0,0%","49,0%","52,0%","0,0%","59,0%","54,2%","0,0%","% incidence 10 (gastric mucosa; 50 mg/kg oral): 7 %/10; Mean No. lesions (gastric mucosa; 50 mg/kg oral): 2; Mean Severity (gastric mucosa; 50 mg/kg oral): 2; % incidence 10 (gastric mucosa; 100 mg/kg oral): 10 %/10; Mean No. lesions (gastric mucosa; 100 mg/kg oral): 2,5; Mean Severity (gastric mucosa; 100 mg/kg oral): 3,5; % incidence 10 (gastric mucosa; 200 mg/kg oral): 10 %/10; Mean No. lesions (gastric mucosa; 200 mg/kg oral): 3; Mean Severity (gastric mucosa; 200 mg/kg oral): 4"
1-Methyl-5-p-methylbenzoylpyrrol-2-acetate of 7-(3-oxypropyl)theophylline [(C)],36%,27%,"38,0%","36,2%","0,0%","53,1%","50,0%","2,0%","69,5%","62,0%","10,0%","40,2%","34,0%","0,0%","59,0%","57,0%","22,2%","70,0%","66,1%","31,0%","Minimum Effective Concentration (Final in PRP) ([2]; ADP, volunteer 1 (person delta for (A), person for (C))): 100 µM; Minimum Effective Concentration (Final in PRP) ([2]; ADP, volunteer 2 (donor gamma)): 100 µM; Minimum Effective Concentration (Final in PRP) ([2]; ADP, volunteer 3 (person alpha for (A), person for (C))): 250 µM; Minimum Effective Concentration (Final in PRP) ([2]; Adrenalin, volunteer 1): 100 µM; Minimum Effective Concentration (Final in PRP) ([2]; Adrenalin, volunteer 2 (donor gamma)): 0.25 µM; Minimum Effective Concentration (Final in PRP) ([2]; Adrenalin, volunteer 3): 100 µM; Minimum Effective Concentration (Final in PRP) ([2]; Arachidonate, volunteer 1): 400 µM; Minimum Effective Concentration (Final in PRP) ([2]; Arachidonate, volunteer 2 (donor gamma)): 10 µM; Minimum Effective Concentration (Final in PRP) ([2]; Arachidonate, volunteer 3): 10 µM; Minimum Effective Concentration (Final in PRP) ([2]; Collagen, volunteer 1): 350 µM; Minimum Effective Concentration (Final in PRP) ([2]; Collagen, volunteer 2 (donor gamma)): 250 µM; Minimum Effective Concentration (Final in PRP) ([2]; Collagen, volunteer 3): 100 µM; % Inhibition [1, 7]: 22%; % Inhibition ([1]; ADP 7.08 μmol/l, dose 2,5 /ml (Table I)): 75%; % Inhibition [1, 8]: 90%"
Cn1c(=O)c2c(ncn2CCCOC(=O)Cc2ccc(-n3cccc3)cc2)n(C)c1=O [(D)],31%,24%,"31,8%","32,7%","1,0%","50,1%","45,9%","8,6%","67,0%","65,4%","9,6%","39,0%","32,0%","0,0%","53,1%","52,0%","11,6%","66,8%","64,1%","16,7%","LD50 (in vivo [3]; ip, I.P.): 675 mg/kg; LD50 (in vivo [3]; po, OS): 1000 mg/kg; LD50 (in vivo [4]; ip, I.P.): 780 mg/kg; LD50 (in vivo [4]; po, OS): 1100 mg/kg"
